# In patent US10894817B2, “Fatty acid modified urocortin-2 analogs for the treatment of diabetes and chronic kidney disease” (priority 2016, dated 2021):
# Where two headings read alike, the source gives them in different places. Starred links: 1 amine or outer side, 2 acyl side, 3 side chain; linkers in the order of their positions; H or OH if unused. Non-standard residues stand in square brackets, D forms with d. Residues, ends and D or L forms follow the SMILES beside them. Groups on a side chain read outwards from the residue. *: point of attachment. C20 diacid = O=C(O)CCCCCCCCCCCCCCCCCCC(=O)*; C18 diacid = O=C(O)CCCCCCCCCCCCCCCCC(=O)*; γGlu = O=C(O)[C@H](CCC(=O)[*:2])N[*:1]; NMeI = CC[C@H](C)[C@H](NC)C(=O)O; AEEA = NCCOCCOCC(=O)O
# Target: T1, human CRHR2b (Homo sapiens, UniProt Q13324)
# T1 construct: expressed in transfected cells; host or cells: Chinese Hamster Ovary (CHO) cells, transient transfection
# T1 sequence (Q13324 1-438 isoform Q13324-2): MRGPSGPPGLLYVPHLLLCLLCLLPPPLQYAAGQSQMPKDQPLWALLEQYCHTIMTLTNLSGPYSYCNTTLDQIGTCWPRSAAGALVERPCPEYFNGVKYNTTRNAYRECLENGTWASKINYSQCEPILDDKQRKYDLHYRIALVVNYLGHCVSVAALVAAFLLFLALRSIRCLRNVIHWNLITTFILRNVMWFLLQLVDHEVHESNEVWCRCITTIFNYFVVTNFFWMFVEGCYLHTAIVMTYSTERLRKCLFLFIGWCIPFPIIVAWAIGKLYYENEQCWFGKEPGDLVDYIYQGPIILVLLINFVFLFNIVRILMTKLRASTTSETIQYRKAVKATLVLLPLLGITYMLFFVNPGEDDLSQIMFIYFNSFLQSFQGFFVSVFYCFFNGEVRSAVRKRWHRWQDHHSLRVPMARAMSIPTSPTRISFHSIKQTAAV
# Assay: human CRHR2b cell-based cAMP assay
# Details: cAMP assay, read-out: hCRHR2b Average EC50
# Protocol: CRHR agonistic activity is measured in a cell-based cAMP assay. Serial dilutions of the test peptides are made in assay buffer containing Hank's Balanced Salt Solution (HBSS, without phenol red) supplemented with 20 mM HEPES and 0.05% lactalbumin enzymatic hydrolysate (LAH) (“assay buffer”). […] A one to three dilution of the test peptides is used in both assays. Receptor over-expressing Chinese Hamster Ovary (CHO) cell line is used for the human CRHR2b assay. […] AF011406.1). Forty-eight hours after the transfection, the cells are centrifuged to remove the culture media and resuspended in fetal bovine serum containing 5% DMSO. They are cryofrozen and stored in vials in liquid nitrogen (20×10^6 cells/ml/vial). On the day of the assay, cells are thawed and resuspended in cold 30 ml culture media supplemented with 20 mM HEPES. The cells are then centrifuged to remove the media and washed once with HBSS supplemented with 20 mM HEPES. Finally, following the last centrifugation, the cells are resuspended in assay buffer. Thirty-thousand cells are used in the human CRHR2b assay for each treatment. The cells are dispensed into Costar 96-well black polystyrene half area EIA/RIA plates (Corning Incorporated, Corning, N.Y.) followed by the addition of the diluted peptides, each at a volume of 20 μL. The agonist induced cAMP levels are detected using a HTRF cAMP Dynamic 2 kit (CisBio, Bedford, Mass.). After incubation at 37° C. for 30 min, the assay is stopped by cell lysis via the addition of 20 μL of d2-labeled cAMP and followed by 20 μL of cryptate-labeled anti-cAMP antibody, as described by the manufacturer. Cellular cAMP (as a result of agonist stimulation) competes with the d2-labeled cAMP for binding to the antibody. HTRF detection is performed on an Envision plate reader (Perkin Elmer Life and Analytical Sciences, Waltham, Mass.) by measuring ratiometric emission at 620 and 665 nm after excitation at 320 nm. The data are converted to picomoles of cAMP using a standard curve obtained from the same assay performed with varying concentrations of unlabeled cAMP. […] The data are analyzed using a Curve Fitting Tool to calculate ED50. Numeric values shown below in Table 1 represent the mean of multiple runs (number of runs shown in parentheses) following the mean value±SEM.
# [1] = Table 26, compounds of Example 9
Compound,EC50 [1],"EC50 (CHO cells transfected with human CRHR2b, mean ± SEM of runs)"
CC[C@H](C)[C@H](N)C(=O)N[C@H](C(=O)N[C@@H](CC(C)C)C(=O)N[C@@H](CO)C(=O)N[C@@H](CC(C)C)C(=O)N[C@@H](CC(=O)O)C(=O)N[C@H](C(=O)N1CCC[C@H]1C(=O)N[C@H](C(=O)N[C@@H](CCCCNC(=O)COCCOCCNC(=O)COCCOCCNC(=O)CC[C@H](NC(=O)CC[C@H](NC(=O)CCCCCCCCCCCCCCCCC(=O)O)C(=O)O)C(=O)O)C(=O)N[C@@H](CC(C)C)C(=O)N[C@@H](CC(C)C)C(=O)N[C@@H](CCC(N)=O)C(=O)N[C@H](C(=O)N[C@@H](CC(C)C)C(=O)N[C@@H](CC(C)C)C(=O)N[C@@H](CCC(=O)O)C(=O)N[C@@H](CCC(N)=O)C(=O)N[C@@H](CCC(=O)O)C(=O)N[C@@H](CCCCN)C(=O)N[C@@H](CCC(N)=O)C(=O)N[C@@H](CCC(=O)O)C(=O)N[C@@H](CCCCN)C(=O)N[C@@H](CCC(=O)O)C(=O)N[C@@H](CCCCN)C(=O)N[C@@H](CCC(N)=O)C(=O)N[C@@H](CCC(N)=O)C(=O)N[C@@H](C)C(=O)N[C@H](C(=O)N[C@H](C(=O)N[C@@H](CC(N)=O)C(=O)N[C@@H](C)C(=O)N[C@@H](CCC(N)=O)C(=O)N[C@H](C(=O)N[C@@H](CC(C)C)C(=O)N[C@@H](C)C(=O)N[C@@H](CCC(N)=O)C(=O)N[C@H](C(N)=O)C(C)C)[C@@H](C)CC)[C@@H](C)O)[C@@H](C)O)[C@@H](C)CC)[C@@H](C)CC)C(C)C)C(C)C [Compound 49] (H-IVLSLDVPIK([AEEA-AEEA-γGlu-γGlu-C18 diacid])LLQILLEQEKQEKEKQQATTNAQILAQV-NH2),2.86 nM,–
CC[C@H](C)[C@H](N)C(=O)N[C@H](C(=O)N[C@@H](CC(C)C)C(=O)N[C@@H](CO)C(=O)N[C@@H](CC(C)C)C(=O)N[C@@H](CC(=O)O)C(=O)N[C@H](C(=O)N1CCC[C@H]1C(=O)N[C@H](C(=O)NCC(=O)N[C@@H](CC(C)C)C(=O)N[C@@H](CC(C)C)C(=O)N[C@@H](CCC(N)=O)C(=O)N[C@H](C(=O)N[C@@H](CC(C)C)C(=O)N[C@@H](CCCCNC(=O)COCCOCCNC(=O)COCCOCCNC(=O)CC[C@H](NC(=O)CC[C@H](NC(=O)CCCCCCCCCCCCCCCCC(=O)O)C(=O)O)C(=O)O)C(=O)N[C@@H](CCC(=O)O)C(=O)N[C@@H](CCC(N)=O)C(=O)N[C@@H](CCC(=O)O)C(=O)N[C@@H](CCCCN)C(=O)N[C@@H](CCC(N)=O)C(=O)N[C@@H](CCC(=O)O)C(=O)N[C@@H](CCCCN)C(=O)N[C@@H](CCC(=O)O)C(=O)N[C@@H](CCCCN)C(=O)N[C@@H](CCC(N)=O)C(=O)N[C@@H](CCC(N)=O)C(=O)N[C@@H](C)C(=O)N[C@H](C(=O)N[C@H](C(=O)N[C@@H](CC(N)=O)C(=O)N[C@@H](C)C(=O)N[C@@H](CCC(N)=O)C(=O)N[C@H](C(=O)N[C@@H](CC(C)C)C(=O)N[C@@H](C)C(=O)N[C@@H](Cc1c[nH]cn1)C(=O)N[C@H](C(N)=O)C(C)C)[C@@H](C)CC)[C@@H](C)O)[C@@H](C)O)[C@@H](C)CC)[C@@H](C)CC)C(C)C)C(C)C [Compound 42] (H-IVLSLDVPIGLLQILK([AEEA-AEEA-γGlu-γGlu-C18 diacid])EQEKQEKEKQQATTNAQILAHV-NH2),500 nM,–
CC[C@H](C)[C@H](NC)C(=O)N[C@H](C(=O)N[C@@H](CC(C)C)C(=O)N[C@@H](CO)C(=O)N[C@@H](CC(C)C)C(=O)N[C@@H](CC(=O)O)C(=O)N[C@H](C(=O)N1CCC[C@H]1C(=O)N[C@H](C(=O)NCC(=O)N[C@@H](CC(C)C)C(=O)N[C@@H](CC(C)C)C(=O)N[C@@H](CCC(N)=O)C(=O)N[C@H](C(=O)N[C@@H](CC(C)C)C(=O)N[C@@H](CC(C)C)C(=O)N[C@@H](CCC(=O)O)C(=O)N[C@@H](CCC(N)=O)C(=O)N[C@@H](CCC(=O)O)C(=O)N[C@@H](CCCCN)C(=O)N[C@@H](CCC(N)=O)C(=O)N[C@@H](CCC(=O)O)C(=O)N[C@@H](CCCCN)C(=O)N[C@@H](CCC(=O)O)C(=O)N[C@@H](CCCCN)C(=O)N[C@@H](CCC(N)=O)C(=O)N[C@@H](CCC(N)=O)C(=O)N[C@@H](C)C(=O)N[C@@H](CCCCNC(=O)CC[C@H](NC(=O)CC[C@H](NC(=O)COCCOCCNC(=O)COCCOCCNC(=O)CC[C@H](NC(=O)CC[C@H](NC(=O)CCCCCCCCCCCCCCCCCCC(=O)O)C(=O)O)C(=O)O)C(=O)O)C(=O)O)C(=O)N[C@H](C(=O)N[C@@H](CC(N)=O)C(=O)N[C@@H](C)C(=O)N[C@@H](CCC(N)=O)C(=O)N[C@H](C(=O)N[C@@H](CC(C)C)C(=O)N[C@@H](C)C(=O)N[C@@H](CCC(N)=O)C(=O)N[C@H](C(N)=O)C(C)C)[C@@H](C)CC)[C@@H](C)O)[C@@H](C)CC)[C@@H](C)CC)C(C)C)C(C)C [Compound 62] (H-[NMeI]VLSLDVPIGLLQILLEQEKQEKEKQQAK([γGlu-γGlu-AEEA-AEEA-γGlu-γGlu-C20 diacid])TNAQILAQV-NH2),4.5 nM,–
CC[C@H](C)[C@H](N)C(=O)N[C@H](C(=O)N[C@@H](CC(C)C)C(=O)N[C@@H](CO)C(=O)N[C@@H](CC(C)C)C(=O)N[C@@H](CC(=O)O)C(=O)N[C@H](C(=O)N1CCC[C@H]1C(=O)N[C@H](C(=O)NCC(=O)N[C@@H](CC(C)C)C(=O)N[C@@H](CC(C)C)C(=O)N[C@@H](CCC(N)=O)C(=O)N[C@H](C(=O)N[C@@H](CC(C)C)C(=O)N[C@@H](CC(C)C)C(=O)N[C@@H](CCC(=O)O)C(=O)N[C@@H](CCC(N)=O)C(=O)N[C@@H](CCC(=O)O)C(=O)N[C@@H](CCCCN)C(=O)N[C@@H](CCC(N)=O)C(=O)N[C@@H](CCC(=O)O)C(=O)N[C@@H](CCCCN)C(=O)N[C@@H](CCC(=O)O)C(=O)N[C@@H](CCCCN)C(=O)N[C@@H](CCC(N)=O)C(=O)N[C@@H](CCC(N)=O)C(=O)N[C@@H](C)C(=O)N[C@@H](CCCCNC(=O)COCCOCCNC(=O)COCCOCCNC(=O)CC[C@H](NC(=O)CC[C@H](NC(=O)CCCCCCCCCCCCCCCCC(=O)O)C(=O)O)C(=O)O)C(=O)N[C@H](C(=O)N[C@@H](CC(N)=O)C(=O)N[C@@H](C)C(=O)N[C@@H](CCC(N)=O)C(=O)N[C@H](C(=O)N[C@@H](CC(C)C)C(=O)N[C@@H](C)C(=O)N[C@@H](Cc1c[nH]cn1)C(=O)N[C@H](C(N)=O)C(C)C)[C@@H](C)CC)[C@@H](C)O)[C@@H](C)CC)[C@@H](C)CC)C(C)C)C(C)C [Compound 48] (H-IVLSLDVPIGLLQILLEQEKQEKEKQQAK([AEEA-AEEA-γGlu-γGlu-C18 diacid])TNAQILAHV-NH2),3.61 nM,–
CC[C@H](C)[C@H](NC)C(=O)N[C@H](C(=O)N[C@H](C(=O)N[C@@H](CO)C(=O)N[C@@H](CC(C)C)C(=O)N[C@@H](CC(=O)O)C(=O)N[C@H](C(=O)N1CCC[C@H]1C(=O)N[C@H](C(=O)NCC(=O)N[C@@H](CC(C)C)C(=O)N[C@@H](CC(C)C)C(=O)N[C@@H](CCC(N)=O)C(=O)N[C@H](C(=O)N[C@@H](CC(C)C)C(=O)N[C@@H](CC(C)C)C(=O)N[C@@H](CCC(=O)O)C(=O)N[C@@H](CCC(N)=O)C(=O)N[C@@H](CCC(=O)O)C(=O)N[C@@H](CCCCN)C(=O)N[C@@H](CCC(N)=O)C(=O)N[C@@H](CCC(=O)O)C(=O)N[C@@H](CCCCN)C(=O)N[C@@H](CCC(=O)O)C(=O)N[C@@H](CCCCN)C(=O)N[C@@H](CCC(N)=O)C(=O)N[C@@H](CCC(N)=O)C(=O)N[C@@H](C)C(=O)N[C@@H](CCCCNC(=O)COCCOCCNC(=O)COCCOCCNC(=O)CC[C@H](NC(=O)CC[C@H](NC(=O)CCCCCCCCCCCCCCCCCCC(=O)O)C(=O)O)C(=O)O)C(=O)N[C@H](C(=O)N[C@@H](CC(N)=O)C(=O)N[C@@H](C)C(=O)N[C@@H](CCC(=O)O)C(=O)N[C@H](C(=O)N[C@@H](CC(C)C)C(=O)N[C@@H](C)C(=O)N[C@@H](CCC(N)=O)C(=O)N[C@H](C(N)=O)C(C)C)[C@@H](C)CC)[C@@H](C)O)[C@@H](C)CC)[C@@H](C)CC)C(C)C)[C@@H](C)O)C(C)C [Example 5] (H-[NMeI]VTSLDVPIGLLQILLEQEKQEKEKQQAK([AEEA-AEEA-γGlu-γGlu-C20 diacid])TNAEILAQV-NH2),–,1.01 ± 0.23 nM
